Numbers after ± are expanded uncertainties.

For this data set the following is noted: 283.15 K; 101.33 kPa; Liquid; Pycnometric method.

For orientation: mass density means mass per unit of volume. As to `CCCCCC(=O)OCC(COC(=O)CCCCC)(COC(=O)CCCCC)COC(=O)CCCCC` [pentaerythritol tetrahexanoate], the mass density stood at 1004.2 ± 1.6 kg/m3.

(Values after the NIST ThermoML archive (doi:10.1021/je800429j).)
